Experimental data: PMC12136037, “Type II kinase inhibitors that target Parkinson’s disease–associated LRRK2” (Science Advances, 2025)
“And” between values parts separate entries of the source, which are not always exact repeats. Equal values may be shown once.

What was measured:
[1] = molecular target: T1, ~100 representative kinases (Homo sapiens, UniProt Q9H4A3); assay: DSF 100 kinase selectivity screen; format: binding; details: Protein WNK1; DSF; average of three replicates;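 also: compound tested at 20 µM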
T1 construct: Recombinant protein kinase domains with a concentration of 2 μM
T1 sequence (Q9H4A3 whole entry, the tested form may be a part): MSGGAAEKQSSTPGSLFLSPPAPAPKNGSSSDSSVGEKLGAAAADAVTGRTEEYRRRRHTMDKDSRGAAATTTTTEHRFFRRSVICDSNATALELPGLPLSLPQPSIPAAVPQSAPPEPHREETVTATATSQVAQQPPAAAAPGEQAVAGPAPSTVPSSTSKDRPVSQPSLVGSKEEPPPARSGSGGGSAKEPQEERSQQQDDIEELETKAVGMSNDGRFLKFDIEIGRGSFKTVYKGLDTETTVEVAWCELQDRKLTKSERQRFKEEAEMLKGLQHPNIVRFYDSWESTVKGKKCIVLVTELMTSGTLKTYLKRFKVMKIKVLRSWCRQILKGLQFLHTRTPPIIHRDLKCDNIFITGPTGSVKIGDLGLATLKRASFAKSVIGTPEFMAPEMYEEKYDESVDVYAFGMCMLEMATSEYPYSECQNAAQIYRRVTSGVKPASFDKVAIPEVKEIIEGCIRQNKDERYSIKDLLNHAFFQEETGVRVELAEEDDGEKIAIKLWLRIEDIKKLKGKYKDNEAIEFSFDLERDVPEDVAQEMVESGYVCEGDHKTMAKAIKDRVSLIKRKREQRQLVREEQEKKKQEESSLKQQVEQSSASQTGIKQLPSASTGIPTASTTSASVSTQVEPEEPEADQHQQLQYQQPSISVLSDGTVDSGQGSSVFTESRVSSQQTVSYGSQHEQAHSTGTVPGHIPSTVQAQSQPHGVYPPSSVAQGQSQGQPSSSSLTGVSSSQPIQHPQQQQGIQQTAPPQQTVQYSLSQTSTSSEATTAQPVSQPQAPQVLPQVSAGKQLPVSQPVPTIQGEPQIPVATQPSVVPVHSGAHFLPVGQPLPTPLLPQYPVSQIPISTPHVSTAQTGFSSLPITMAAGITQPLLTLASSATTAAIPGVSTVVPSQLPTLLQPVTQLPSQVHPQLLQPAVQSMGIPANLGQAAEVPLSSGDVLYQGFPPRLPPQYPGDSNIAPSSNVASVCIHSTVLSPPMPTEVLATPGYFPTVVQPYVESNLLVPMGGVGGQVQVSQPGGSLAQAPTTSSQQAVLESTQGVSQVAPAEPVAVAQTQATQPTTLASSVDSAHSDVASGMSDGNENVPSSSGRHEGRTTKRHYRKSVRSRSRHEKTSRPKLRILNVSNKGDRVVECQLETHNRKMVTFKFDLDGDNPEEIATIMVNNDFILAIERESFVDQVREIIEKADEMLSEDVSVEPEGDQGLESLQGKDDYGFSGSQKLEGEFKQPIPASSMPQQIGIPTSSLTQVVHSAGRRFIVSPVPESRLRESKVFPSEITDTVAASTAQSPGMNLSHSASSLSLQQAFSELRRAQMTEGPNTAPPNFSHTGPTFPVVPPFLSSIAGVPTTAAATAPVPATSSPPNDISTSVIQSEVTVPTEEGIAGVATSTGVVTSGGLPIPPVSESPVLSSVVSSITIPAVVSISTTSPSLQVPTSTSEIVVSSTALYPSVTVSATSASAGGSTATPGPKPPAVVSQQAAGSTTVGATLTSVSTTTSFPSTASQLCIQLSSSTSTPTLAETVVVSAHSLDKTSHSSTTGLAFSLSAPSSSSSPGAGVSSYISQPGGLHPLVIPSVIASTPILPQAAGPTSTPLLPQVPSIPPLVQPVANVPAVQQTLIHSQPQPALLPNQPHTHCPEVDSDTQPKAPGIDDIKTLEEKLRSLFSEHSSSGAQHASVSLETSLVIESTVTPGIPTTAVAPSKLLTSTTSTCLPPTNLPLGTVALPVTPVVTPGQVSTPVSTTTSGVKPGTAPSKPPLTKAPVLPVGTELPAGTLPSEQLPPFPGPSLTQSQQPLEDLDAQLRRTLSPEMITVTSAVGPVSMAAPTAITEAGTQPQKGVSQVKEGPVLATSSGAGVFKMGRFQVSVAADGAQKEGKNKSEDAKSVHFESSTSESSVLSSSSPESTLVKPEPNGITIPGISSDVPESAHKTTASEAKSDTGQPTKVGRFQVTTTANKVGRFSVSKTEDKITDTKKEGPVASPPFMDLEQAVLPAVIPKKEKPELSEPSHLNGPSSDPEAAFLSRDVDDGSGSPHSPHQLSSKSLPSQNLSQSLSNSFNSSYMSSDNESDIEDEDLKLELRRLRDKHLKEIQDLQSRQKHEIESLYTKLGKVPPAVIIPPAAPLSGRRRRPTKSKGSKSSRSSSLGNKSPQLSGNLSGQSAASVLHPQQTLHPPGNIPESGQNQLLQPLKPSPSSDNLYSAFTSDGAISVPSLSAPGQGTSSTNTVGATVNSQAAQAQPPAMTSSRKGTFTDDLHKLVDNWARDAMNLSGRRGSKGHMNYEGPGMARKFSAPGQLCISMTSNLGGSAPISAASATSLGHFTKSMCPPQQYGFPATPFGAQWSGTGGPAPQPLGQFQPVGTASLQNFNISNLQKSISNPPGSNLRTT
In short: (§1)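 Each kinase domain, at 2 μM, is mixed with 20 μM test compound and SYPRO Orange in Hepes (20 mM, pH 7.5) with 500 mM NaCl. Temperature is then raised at 3°C/min and fluorescence-monitored unfolding yields the melting temperature change, ΔTm in degrees Celsius.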

[2] = molecular target: T2, ~100 representative kinases (Homo sapiens, UniProt Q5VT25); assay: DSF 100 kinase selectivity screen; format: binding; details: Protein CDC42BPA; average of three replicates;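 also: compound tested at 20 µM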
T2 construct: Recombinant protein kinase domains with a concentration of 2 μM
T2 sequence (Q5VT25 whole entry, the tested form may be a part): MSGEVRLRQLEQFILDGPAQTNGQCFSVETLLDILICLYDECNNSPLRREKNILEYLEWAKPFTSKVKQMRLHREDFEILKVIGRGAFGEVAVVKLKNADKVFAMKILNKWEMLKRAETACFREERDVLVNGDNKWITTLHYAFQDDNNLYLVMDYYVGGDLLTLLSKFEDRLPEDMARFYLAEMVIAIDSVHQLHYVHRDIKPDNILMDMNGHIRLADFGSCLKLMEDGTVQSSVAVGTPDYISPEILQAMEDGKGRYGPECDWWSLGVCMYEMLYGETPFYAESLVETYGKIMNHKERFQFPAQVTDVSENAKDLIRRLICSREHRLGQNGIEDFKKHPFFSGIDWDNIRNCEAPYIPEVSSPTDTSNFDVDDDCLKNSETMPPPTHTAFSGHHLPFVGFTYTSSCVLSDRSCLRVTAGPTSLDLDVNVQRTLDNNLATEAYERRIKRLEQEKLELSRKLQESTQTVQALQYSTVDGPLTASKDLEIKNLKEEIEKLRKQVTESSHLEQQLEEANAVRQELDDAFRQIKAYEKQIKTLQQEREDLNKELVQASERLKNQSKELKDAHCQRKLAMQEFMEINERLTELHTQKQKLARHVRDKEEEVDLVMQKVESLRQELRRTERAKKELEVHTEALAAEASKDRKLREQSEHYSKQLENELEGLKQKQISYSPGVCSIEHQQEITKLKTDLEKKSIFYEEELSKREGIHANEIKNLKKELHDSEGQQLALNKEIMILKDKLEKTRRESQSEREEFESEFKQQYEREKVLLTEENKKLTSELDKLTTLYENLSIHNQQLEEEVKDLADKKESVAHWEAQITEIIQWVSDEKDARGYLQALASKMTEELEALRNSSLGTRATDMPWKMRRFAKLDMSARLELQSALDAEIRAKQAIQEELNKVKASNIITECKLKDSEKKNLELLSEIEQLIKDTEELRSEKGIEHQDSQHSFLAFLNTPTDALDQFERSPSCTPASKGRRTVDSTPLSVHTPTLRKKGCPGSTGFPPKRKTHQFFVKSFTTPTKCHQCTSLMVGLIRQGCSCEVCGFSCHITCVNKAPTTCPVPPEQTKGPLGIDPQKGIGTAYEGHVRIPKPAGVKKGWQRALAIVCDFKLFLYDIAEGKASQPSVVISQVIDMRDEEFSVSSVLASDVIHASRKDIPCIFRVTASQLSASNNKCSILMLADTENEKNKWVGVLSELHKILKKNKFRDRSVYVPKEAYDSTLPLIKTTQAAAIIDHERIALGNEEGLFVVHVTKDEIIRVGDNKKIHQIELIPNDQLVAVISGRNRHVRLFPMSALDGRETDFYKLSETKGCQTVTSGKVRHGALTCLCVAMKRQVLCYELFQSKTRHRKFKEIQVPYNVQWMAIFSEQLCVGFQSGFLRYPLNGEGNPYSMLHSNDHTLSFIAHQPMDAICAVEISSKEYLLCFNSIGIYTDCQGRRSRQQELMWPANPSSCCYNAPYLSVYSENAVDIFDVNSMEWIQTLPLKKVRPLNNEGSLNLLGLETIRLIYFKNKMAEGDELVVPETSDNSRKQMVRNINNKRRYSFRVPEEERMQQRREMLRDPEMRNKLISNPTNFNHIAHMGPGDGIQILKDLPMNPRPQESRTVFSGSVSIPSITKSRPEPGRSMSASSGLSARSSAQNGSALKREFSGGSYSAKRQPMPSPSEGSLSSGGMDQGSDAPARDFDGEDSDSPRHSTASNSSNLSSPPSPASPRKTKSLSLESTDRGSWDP
In short: as §1

[3] = molecular target: T3, ~100 representative kinases (Homo sapiens, UniProt P27448); assay: DSF 100 kinase selectivity screen; format: binding; details: protein MARK3; average of three replicates;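 also: compound tested at 20 µM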
T3 construct: Recombinant protein kinase domains with a concentration of 2 μM
In short: as §1

[4] = molecular target: T4, ~100 representative kinases (Homo sapiens, UniProt O96013); assay: DSF 100 kinase selectivity screen; format: binding; details: protein PAK4; average of three replicates;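 also: compound tested at 20 µM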
T4 construct: Recombinant protein kinase domains with a concentration of 2 μM
In short: as §1

[5] = molecular target: T5, ~100 representative kinases (Homo sapiens, UniProt Q2M2I8); assay: DSF 100 kinase selectivity screen; format: binding; details: Protein AAK1; average of three replicates;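 also: compound tested at 20 µM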
T5 construct: Recombinant protein kinase domains with a concentration of 2 μM
T5 sequence (Q2M2I8 whole entry, the tested form may be a part): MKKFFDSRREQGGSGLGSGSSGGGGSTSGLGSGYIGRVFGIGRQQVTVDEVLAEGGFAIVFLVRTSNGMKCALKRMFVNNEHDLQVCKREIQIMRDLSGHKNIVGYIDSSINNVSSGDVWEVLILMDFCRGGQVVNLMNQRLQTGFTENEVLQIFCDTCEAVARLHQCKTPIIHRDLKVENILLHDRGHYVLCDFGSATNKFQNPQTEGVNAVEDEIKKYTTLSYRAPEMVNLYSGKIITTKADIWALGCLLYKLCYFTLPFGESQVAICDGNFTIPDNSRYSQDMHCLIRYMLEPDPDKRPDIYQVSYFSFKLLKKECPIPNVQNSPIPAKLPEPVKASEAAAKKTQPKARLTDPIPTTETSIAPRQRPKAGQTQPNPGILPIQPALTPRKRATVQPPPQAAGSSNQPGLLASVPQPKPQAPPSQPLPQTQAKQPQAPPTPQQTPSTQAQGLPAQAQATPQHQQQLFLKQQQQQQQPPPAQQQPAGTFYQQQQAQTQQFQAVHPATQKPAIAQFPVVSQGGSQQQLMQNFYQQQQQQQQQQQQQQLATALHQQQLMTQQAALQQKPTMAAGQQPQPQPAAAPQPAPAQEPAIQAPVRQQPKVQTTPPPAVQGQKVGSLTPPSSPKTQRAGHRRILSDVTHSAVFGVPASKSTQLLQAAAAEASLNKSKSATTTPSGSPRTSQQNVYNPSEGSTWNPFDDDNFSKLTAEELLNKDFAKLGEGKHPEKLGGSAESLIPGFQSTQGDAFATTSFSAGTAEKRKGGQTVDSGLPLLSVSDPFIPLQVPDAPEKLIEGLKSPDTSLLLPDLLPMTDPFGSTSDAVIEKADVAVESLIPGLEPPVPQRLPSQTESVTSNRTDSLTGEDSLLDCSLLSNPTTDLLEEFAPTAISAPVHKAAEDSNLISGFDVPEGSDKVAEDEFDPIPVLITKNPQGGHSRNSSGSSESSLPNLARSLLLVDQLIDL
In short: as §1

[6] = molecular target: T6, ~100 representative kinases (Homo sapiens, UniProt P12931); assay: DSF 100 kinase selectivity screen; format: binding; details: Protein SRC; DSF; average of three replicates;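 also: compound tested at 20 µM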
T6 construct: Recombinant protein kinase domains with a concentration of 2 μM
In short: as §1

LRRK2^RCKW = molecular target: T7, LRRK2^RCKW (Homo sapiens, UniProt Q5S007); assay: Biochemical LRRK2 activity assay (PhosphoSense, AssayQuant SOX peptide AQT0615); details: for IC50: LRRK2^RCKW kinase activity, in vitro; for normalized response (LRRK2 activity): normalized to 0% (no kinase) and 100% (no inhibitor) control, two singlicate columns per compound
T7 construct: LRRK2 R1327 to E2527; His6-Z-tag (TEV cleavable) (N, cleaved yes); host or cells: Sf9 insect cells (baculovirus)
T7 sequence (Q5S007 1327-2527): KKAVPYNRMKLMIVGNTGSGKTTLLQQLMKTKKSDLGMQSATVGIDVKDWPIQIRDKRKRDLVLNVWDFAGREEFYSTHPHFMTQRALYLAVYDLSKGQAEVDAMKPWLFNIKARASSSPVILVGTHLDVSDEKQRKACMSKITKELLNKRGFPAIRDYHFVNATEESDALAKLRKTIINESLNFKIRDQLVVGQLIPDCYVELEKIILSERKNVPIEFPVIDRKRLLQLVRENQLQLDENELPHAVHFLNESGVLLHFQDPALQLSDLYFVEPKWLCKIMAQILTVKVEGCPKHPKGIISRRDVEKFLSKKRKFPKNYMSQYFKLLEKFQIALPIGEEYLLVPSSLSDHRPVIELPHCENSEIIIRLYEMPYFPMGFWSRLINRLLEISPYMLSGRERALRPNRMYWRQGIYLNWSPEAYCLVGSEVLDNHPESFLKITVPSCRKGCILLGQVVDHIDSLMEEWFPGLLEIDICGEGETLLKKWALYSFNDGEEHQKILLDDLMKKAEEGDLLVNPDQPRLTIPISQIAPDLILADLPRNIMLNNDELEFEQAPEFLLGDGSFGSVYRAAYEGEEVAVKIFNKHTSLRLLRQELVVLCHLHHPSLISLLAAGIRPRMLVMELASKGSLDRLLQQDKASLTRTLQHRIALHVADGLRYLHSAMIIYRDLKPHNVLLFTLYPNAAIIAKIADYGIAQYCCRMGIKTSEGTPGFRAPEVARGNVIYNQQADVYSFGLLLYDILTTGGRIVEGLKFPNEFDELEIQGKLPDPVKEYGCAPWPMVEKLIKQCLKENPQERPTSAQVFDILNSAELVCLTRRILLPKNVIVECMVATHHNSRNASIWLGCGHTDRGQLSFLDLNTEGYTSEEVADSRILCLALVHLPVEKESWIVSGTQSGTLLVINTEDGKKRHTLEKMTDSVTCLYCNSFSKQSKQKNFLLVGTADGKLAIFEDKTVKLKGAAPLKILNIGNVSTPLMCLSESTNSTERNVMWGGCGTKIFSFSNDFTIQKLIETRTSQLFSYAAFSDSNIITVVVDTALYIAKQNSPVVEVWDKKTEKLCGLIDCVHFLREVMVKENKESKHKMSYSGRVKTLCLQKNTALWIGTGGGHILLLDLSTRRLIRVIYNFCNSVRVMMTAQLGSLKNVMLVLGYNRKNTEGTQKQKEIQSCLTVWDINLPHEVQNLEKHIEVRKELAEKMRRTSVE
In short: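 Controls lacked protein and compound (0%) or compound only (100%). IC50 derived by nonlinear regression of normalized response versus log[inhibitor].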

dTm [1]	dTm [2]	dTm [3]	dTm [4]	dTm [5]	dTm [6]	IC50 (LRRK2^RCKW)	normalized response (LRRK2 activity) (LRRK2^RCKW; log[inhibitor(mol)] -4.82391)	normalized response (LRRK2 activity) (LRRK2^RCKW; log[inhibitor(mol)] -5.12494)	normalized response (LRRK2 activity) (LRRK2^RCKW; log[inhibitor(mol)] -5.60206)	normalized response (LRRK2 activity) (LRRK2^RCKW; log[inhibitor(mol)] -6.30103)	normalized response (LRRK2 activity) (LRRK2^RCKW; log[inhibitor(mol)] -6.90309)	normalized response (LRRK2 activity) (LRRK2^RCKW; log[inhibitor(mol)] -7.30103)	normalized response (LRRK2 activity) (LRRK2^RCKW; log[inhibitor(mol)] -7.60206)	normalized response (LRRK2 activity) (LRRK2^RCKW; log[inhibitor(mol)] -8.09691)	normalized response (LRRK2 activity) (LRRK2^RCKW; log[inhibitor(mol)] -8.61979)	normalized response (LRRK2 activity) (LRRK2^RCKW; log[inhibitor(mol)] -9.09691)	normalized response (LRRK2 activity) (LRRK2^RCKW; log[inhibitor(mol)] -9.39794)	SMILES
-1.93 K	-0.53 K	4.89 K	0.76 K	-0.91 K	-0.0179 K	886 ± 63 nM	10.3797% and 6.914%	10.6927% and 10.684%	26.6669% and 27.2452%	59.6653% and 62.0504%	86.7302% and 90.6112%	94.29% and 100.35%	102.254% and 104.876%	100.313% and 102.032%	105% and 108.964%	105.539% and 102.73%	104.285% and 104.996%	CC(C)(C)c1cccc(NC(=O)C2(C(=O)Nc3cccc(-c4c[nH]c5ncnc(N6CCOCC6)c45)c3)CC2)c1 [Compound 22]
-0.34 K	-1.22 K	4.65 K	-0.00913 K	2.93 K	0.45 K	159 ± 0.2 nM	-26.6261% and -31.2355%	-19.0277% and -21.4214%	-16.2351% and -13.5898%	3.675% and 3.246%	59.976% and 57.9812%	81.7768% and 85.349%	93.6348% and 95.0771%	95.5743% and 95.9609%	101.288% and 95.0587%	106.438% and 96.5808%	103.437% and 104.087%	O=C(Nc1cccc(-c2c[nH]c3ncnc(N4CCOCC4)c23)c1)C1(C(=O)Nc2ccc(F)cc2F)CC1 [Compound 23]
-0.0334 K	-1.23 K	4.53 K	-0.47 K	3.04 K	0.70 K	1190 ± 231 nM	–	6.394% and 5.578%	30.1593% and 37.3588%	66.9115% and 76.4371%	91.3884% and 99.1893%	98.0109% and 87.3375%	102.16% and 100.865%	98.4037% and 99.8706%	99.6435% and 101.436%	–	101.258% and 60.2522%	Cc1cc(F)ccc1NC(=O)C1(C(=O)Nc2cccc(-c3c[nH]c4ncnc(N5CCOCC5)c34)c2)CC1 [Compound 24]
1.20 K	-0.57 K	3.00 K	0.88 K	-2.54 K	-0.23 K	818 ± 56 nM	4.179% and 4.042%	6.886% and 2.089%	16.9372% and 25.3493%	61.5503% and 64.2768%	87.889% and 62.9679%	95.1314% and 96.4468%	95.9663% and 100.454%	95.3684% and 96.0989%	98.0471% and 98.2841%	97.884% and 98.6428%	99.7517% and 70.9452%	O=C(Nc1cccc(-c2c[nH]c3ncnc(N4CCOCC4)c23)c1)C1(C(=O)Nc2cc(Br)c(F)cc2F)CC1 [Compound 25]
1.13 K	-0.44 K	3.94 K	0.78 K	-0.08 K	-0.13 K	134 ± 5 nM	1.939% and 8.5359%	9.123% and 11.3015%	44.4326% and 42.5431%	13.6454% and 21.2987%	53.1512% and 54.1949%	78.8268% and 70.6625%	83.0818% and 80.8923%	91.3569% and 90.9395%	93.5464% and 85.6887%	97.2382% and 103.098%	97.1774% and 94.1421%	O=C(Nc1cccc(-c2c[nH]c3ncnc(N4CCOCC4)c23)c1)C1(C(=O)Nc2ccc(F)c(Br)c2F)CC1 [Compound 26]
0.64 K	0.59 K	3.05 K	0.52 K	-2.65 K	0.35 K	1960 ± 652 nM	9.9531% and 0.1682%	15.329% and 15.4402%	51.4182% and 54.957%	74.2368% and 85.6074%	93.8115% and 94.6865%	93.6955% and 101.281%	91.0994% and 95.9483%	92.7092% and 88.0778%	94.7784% and 93.0186%	131.133% and 93.2265%	94.4883% and 98.7958%	O=C(Nc1cc(F)cc(Br)c1)C1(C(=O)Nc2cccc(-c3c[nH]c4ncnc(N5CCOCC5)c34)c2)CC1 [Compound 27]
